What was measured:
[1] = system: p62 oligomers in HeLa cells; assay: p62 oligomerization assay (Western blot, 24 h treatment); format: cell-based; details: fold change of p62 oligomer levels relative to DMSO control
Protocol: (§1) HeLa cells were seeded in 6-well plates (700,000 cells) and allowed to adhere overnight. Media was replaced one hour before administering either vehicle (DMSO) or test compounds. After 24 hours of treatment, the media was discarded, and cells were rinsed once with ice-cold 1×PBS before detached from plates with ice-cold RIPA Lysis and Extraction Buffer (Thermo Fisher Scientific) which was supplemented with protease and phosphatase inhibitors. The resulting cell suspensions were transferred to pre-chilled microcentrifuge tubes, incubated on ice for 20 min with intermittent mixing and then centrifuged at 12,000 rpm for 20 min at 4° C. The supernatants were then aspirated slowly and transferred into new tubes kept on ice. The protein concentration in the samples was determined using BCA kit (Thermo Fisher Scientific) as per manufacturer's instructions.
(§2) For the p62 oligomerization and LC3 lipidation assays, cell lysates were prepared using RIPA buffer supplemented with 2% SDS and benzonase (Sigma). The lysates were then combined with 4× Laemmli protein sample buffer (Bio-Rad), heated at 70° C. for 10 min and subjected to a brief centrifugation of 10-15 seconds.
(§3) For p62 oligomerization and LC3 lipidation assays, lysates containing 30 μg of protein and for BRD4 and FKBP12(F36V) degradation assays, lysates containing 20 μg of protein, were loaded slowly into the wells of 4-20% gradient Tris-glycine gels (Bio-Rad). The gels were run at 100V until completion and transferred onto PVDF membranes. Membranes were blocked using 5% milk in TBS-Tween (0.1%) buffer at room temperature for 1 hour. The membranes were incubated with primary antibody in 5% milk-TBST with shaking, overnight at 4° C. The primary antibodies used were: p62 (Novus Biologicals 2C11, H00008878-MO1), LC3A/B (Cell Signalling Technology D3U4C, 12741S), FKBP12 (Abcam ab24373), BRD4 (Cell Signalling Technology E2A7X, 13440S), GAPDH (Cell Signalling Technology D4C6R, 97166S), and β-Actin (Proteintech 66009-1-Ig). Following primary antibody incubation, membranes were washed thrice with TBST 10 min before and after incubation with secondary-HRP conjugated antibody in 5% milk-TBST for 1 hour at room temperature. The secondary antibodies used were: Anti-Mouse IgG HRP Conjugate (Promega W4021B) and Anti-Rabbit IgG HRP Conjugate (Promega W4011B). For the p62 oligomerization assay, the total protein levels were assessed using Ponceau staining (Thermo Fisher Scientific) of PVDF membrane as per recommendation by manufacturer's guidelines.
(§4) Imaging was acquired using SuperSignal™ West Pico PLUS Chemiluminescent Substrate (Thermo Fisher Scientific) with iBright Invitrogen FL100 imaging system. Band signal intensity, reflective of protein concentrations, were quantified using Invitrogen™ iBright™ Analysis and Image J software.
HeLa cells were treated with compounds for 24 hours to evaluate the effect of these compounds on p62 oligomerisation activity. The resulting changes in levels of p62 oligomers were assessed by Western blotting, as described in experimental procedures. The fold change of p62 oligomer levels induced by compound treatment relative to vehicle control (DMSO) was determined and summarized in Table 8. Specifically, FIGS. 2A-C show Western blot images and their corresponding quantification showing the levels of high molecular weight (100-200 kDa) p62 oligomers by 24 hours compound treatments at listed concentrations, relative to vehicle control (DMSO) in HeLa cells. Protein loading consistencies was assessed by Ponceau staining (not shown).

[2] = biological target: T1, Recombinant p62 protein (Homo sapiens, UniProt Q13501); assay: Surface plasmon resonance (SPR) compound binding to immobilised p62; details: recombinant p62, 15° C
T1 construct: Recombinant p62 protein was buffer exchanged into Biacore SPR running buffer
T1 sequence (Q13501 whole entry, species assumed): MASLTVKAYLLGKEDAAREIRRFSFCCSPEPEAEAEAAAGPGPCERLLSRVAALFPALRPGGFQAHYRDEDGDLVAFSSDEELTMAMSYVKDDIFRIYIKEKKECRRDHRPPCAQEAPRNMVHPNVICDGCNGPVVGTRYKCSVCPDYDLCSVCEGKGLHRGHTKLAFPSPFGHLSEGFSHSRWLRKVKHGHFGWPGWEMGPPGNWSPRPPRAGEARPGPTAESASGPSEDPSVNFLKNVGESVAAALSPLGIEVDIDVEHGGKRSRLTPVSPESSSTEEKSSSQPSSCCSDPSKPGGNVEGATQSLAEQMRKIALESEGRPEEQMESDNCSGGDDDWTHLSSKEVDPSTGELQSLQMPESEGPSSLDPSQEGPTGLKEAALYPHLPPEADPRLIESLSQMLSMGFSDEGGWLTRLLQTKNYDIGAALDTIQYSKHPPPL
Protocol: Example 28: Surface Plasmon Resonance (SPR) Analysis
Recombinant p62 protein was buffer exchanged into Biacore SPR running buffer (Cytiva 100671) using the Slide-A-Lyzer Mini Dialysis system 7K MWCO (Thermo Fisher Scientific, Cat no. 69560). The final protein concentration was determined using the Nanodrop One spectrophotometer (Thermo Fisher Scientific, cat no. ND-ONE-W), with calibration for the dialysis buffer.
The prepared protein was diluted in sodium acetate buffer (NaAc, pH 5.5, Cytiva) to concentrations ranging from approximately 0.25-40 μg/mL. Post-immobilization, the protein required approximately 16 hours of equilibration in running buffer supplemented with 1% DMSO at 15° C. to ensure adequate surface equilibration and protein reorganization.
All SPR experiments were conducted at a constant temperature of 15° C. The SPR chip surface was activated using EDC/NHS for a contact time of 6-10 min at a flow rate of 10 μL/min. This was followed by protein immobilization for 2100 seconds and ethanolamine capping for 420 seconds, both at the same flow rate. Immediately after immobilization, the NH2—REEE peptide was analyzed in Single Cycle Kinetics mode (SCK) to verify surface activity, ensuring it binds the sample with the published affinity (−20 μM by SPR).
For general compound binding studies, experiments were performed at 15° C. using a running buffer composed of 10 mM HEPES, 150 mM NaCl, 1 mM DTT, 0.05% Tween 20, and 1% DMSO at pH 7.4. The test compound was initially prepared at a 20 mM concentration in DMSO and subsequently titrated in 2-fold dilutions. For each assay, 2 μL of the compound was mixed with 198 μL of the running buffer, and the mixture was thoroughly pipetted approximately 15 times for homogenization.
A series of blank injections (0 μM concentration) were included for double referencing, with at least 8 or 16 per plate depending on the format. Typical injection parameters were 120 seconds for association and 180 seconds for dissociation at a flow rate of […]. A four-point solvent correction was prepared with DMSO concentrations ranging from 2% to 0.5% in the buffer. Post each compound injection, the system's needles were washed with 50% DMSO.
Analysis of the SPR data was conducted using the Cytiva Evaluation software. The binding levels at the late time-point of each interaction were corrected for reference, then normalized to percentage bound values to account for variations in immobilization levels, protein molecular weight, and compound molecular weight.
Compound binding studies were carried out according to experimental procedures above and SPR % occupancy was determined and summarized in Table 7.

[3] = system: LC3 protein (LC3-II/LC3-I) in HeLa cells; assay: LC3 lipidation assay (LC3-II/LC3-I, Western blot, 24 h treatment); format: cell-based; details: fold change in LC3-II/LC3-I relative to DMSO control
Protocol: as §1, §2, §3, §4
HeLa cells were treated with compounds for 24 hours to evaluate the effect of these compounds on LC3-II/LC3-I levels, a measure of autophagy activation. The changes in levels of LC3-I, LC3-II and β-Actin (loading control) were assessed by Western blotting, as described in experimental procedures. The fold increase of LC3-II/LC3-I levels induced by compound treatment relative to vehicle control (DMSO) was determined and summarized in Table 9. Specifically, FIGS. 3A-C show Western blot images and their corresponding quantification showing the lipidation levels of LC3 protein (LC3-II/LC3-I) by 24 hours compound treatments at listed concentrations, relative to vehicle control (DMSO) in HeLa cells.

[4] = biological target: T2, BRD4 in HeLa cells (Homo sapiens, UniProt O60885); assay: BRD4 degradation assay (Western blot, 24 h treatment); format: cell-based; details: doses up to 10 μM
T2 construct: endogenous in cells; host or cells: HeLa
Protocol: as §1
For the BRD4 degradation assay, cell lysates were prepared with RIPA buffer containing 0.25% SDS. These were mixed with 4× Laemmli protein sample buffer (Bio-Rad) supplemented with beta-mercaptoethaol (355 mM). The lysates were then heated at 95° C. for 5 min, and briefly centrifuged for 10-15 seconds.
For p62 oligomerization and LC3 lipidation assays, lysates containing 30 μg of protein and for BRD4 and FKBP12(F36V) degradation assays, lysates containing 20 μg of protein, were loaded slowly into the wells of 4-20% gradient Tris-glycine gels (Bio-Rad). The gels were run at 100V until completion and transferred onto PVDF membranes. Membranes were blocked using 5% milk in TBS-Tween (0.1%) buffer at room temperature for 1 hour. The membranes were incubated with primary antibody in 5% milk-TBST with shaking, overnight at 4° C. […] For the p62 oligomerization assay, the total protein levels were assessed using Ponceau staining (Thermo Fisher Scientific) of PVDF membrane as per recommendation by manufacturer's guidelines.
as §4
To evaluate levels of protein degradation by compounds 100-103, HeLa cells were treated with the corresponding compounds at doses up to 10 μM for 24 hours. The changes in levels of BRD4 and GAPDH (loading control) were assessed by Western blotting, as described in experimental procedures. Results are summarized in Table 11 below, measured by percentage change in BRD4 levels by compound treatment relative to vehicle (DMSO) control.

| receptor occupancy at 100 µM [2] [%] | SMILES | p62 oligomerization [1] | LC3 lipidation [3] | Degradation (change in BRD4 levels relative to DMSO control) [4] |
| --- | --- | --- | --- | --- |
| 30 to 70 | CC(C)NCCOCc1ccc2cc(Cc3ccccc3)oc2c1 [Compound 7, N-(2-((2-benzylbenzofuran-6-yl)methoxy)ethyl)propan-2-amine] | ++ (> 2-fold change relative to DMSO control) | ++ (> 2-fold change in LC3-II/LC3-I relative to DMSO control) |  |
| > 70 | CC(C)NCC(O)COc1ccc2cc(Cc3ccccc3)oc2c1 (stereo not shown) [Compound 9, 1-((2-benzylbenzofuran-6-yl)oxy)-3-(isopropylamino)propan-2-ol] | + (< 2-fold change relative to DMSO control) | ++ (> 2-fold change in LC3-II/LC3-I relative to DMSO control) |  |
| 30 to 70 | OCCNCc1ccc2cc(CNC3CCCC(O)C3)oc2c1 (stereo not shown) [Compound 33, 3-(((6-(((2-hydroxyethyl)amino)methyl)benzofuran-2-yl)methyl)amino)cyclohexan-1-ol] | + (< 2-fold change relative to DMSO control) | + (< 2-fold change in LC3-II/LC3-I relative to DMSO control) |  |
| 30 to 70 | OCCNCc1ccc2c(Cc3ccccc3)coc2c1 [Compound 43, 2-(((3-benzylbenzofuran-6-yl)methyl)amino)ethan-1-ol] | + (< 2-fold change relative to DMSO control) | ++ (> 2-fold change in LC3-II/LC3-I relative to DMSO control) |  |
| 30 to 70 | OCCNCc1ccc2cc(CCc3ccccc3)oc2c1 [compound 3] | ++ (> 2-fold change relative to DMSO control) | ++ (> 2-fold change in LC3-II/LC3-I relative to DMSO control) |  |
| 30 to 70 | CC(O)CNCc1ccc2cc(Cc3ccccc3)oc2c1 (stereo not shown) [compound 5] | + (< 2-fold change relative to DMSO control) | + (< 2-fold change in LC3-II/LC3-I relative to DMSO control) |  |
| 30 to 70 | CNCCOCc1ccc2cc(Cc3ccccc3)oc2c1 [compound 8] | ++ (> 2-fold change relative to DMSO control) | + (< 2-fold change in LC3-II/LC3-I relative to DMSO control) |  |
| 30 to 70 | OC1CC(NCc2ccc3cc(Cc4ccccc4)oc3c2)C1 (stereo not shown) [compound 10] | ++ (> 2-fold change relative to DMSO control) | + (< 2-fold change in LC3-II/LC3-I relative to DMSO control) |  |
| > 70 | OCCNCc1ccc2cc(Cc3cccc(Cl)c3)oc2c1 [compound 15] | ++ (> 2-fold change relative to DMSO control) | + (< 2-fold change in LC3-II/LC3-I relative to DMSO control) |  |
| 30 to 70 | COc1ccc(Cc2cc3ccc(CNCCO)cc3o2)cc1 [compound 17] | + (< 2-fold change relative to DMSO control) | + (< 2-fold change in LC3-II/LC3-I relative to DMSO control) |  |
| 30 to 70 | O=C(Nc1ccccc1)c1cc2ccc(CNCCO)cc2o1 [compound 35] | + (< 2-fold change relative to DMSO control) | + (< 2-fold change in LC3-II/LC3-I relative to DMSO control) |  |
| 30 to 70 | OCCNCc1cc(F)c2cc(Cc3ccccc3)oc2c1 [compound 37] | ++ (> 2-fold change relative to DMSO control) | ++ (> 2-fold change in LC3-II/LC3-I relative to DMSO control) |  |
|  | Cc1sc2c(c1C)C(c1ccc(Cl)cc1)=N[C@@H](CC(=O)NCCOCCOCCOCCNCc1ccc3cc(Cc4ccccc4)oc3c1)c1nnc(C)n1-2 [compound 100, (S)-N-(1-(2-benzylbenzofuran-6-yl)-5,8,11-trioxa-2-azatridecan-13-yl)-2-(4-(4-chlorophenyl)-2,3,9-trimethyl-6H-thieno[3,2-f][1,2,4]triazolo[4,3-a][1,4]diazepin-6-yl)acetamide] |  |  | ++ (> 2-fold change in BRD4 levels relative to DMSO control) |
|  | Cc1sc2c(c1C)C(c1ccc(Cl)cc1)=N[C@@H](CC(=O)NCCOCCOCCOCCNCc1ccc3cc(CCc4ccccc4)oc3c1)c1nnc(C)n1-2 [compound 101] |  |  | ++ (> 2-fold change in BRD4 levels relative to DMSO control) |
|  | Cc1sc2c(c1C)C(c1ccc(Cl)cc1)=N[C@@H](CC(=O)NCCOCCNCc1ccc3cc(Cc4ccccc4)oc3c1)c1nnc(C)n1-2 [compound 102] |  |  | + (< 2-fold change in BRD4 levels relative to DMSO control) |
|  | Cc1sc2c(c1C)C(c1ccc(Cl)cc1)=N[C@@H](CC(=O)NCCOCCOCCNCc1ccc3cc(Cc4ccccc4)oc3c1)c1nnc(C)n1-2 [compound 103] |  |  | ++ (> 2-fold change in BRD4 levels relative to DMSO control) |

— patent US20250282742A1, “BENZOFURAN DERIVATIVES FOR TARGETING AUTOPHAGY” (Automera PTE. LTD, priority 2024, published 2025)
